The text below walks through data of patent publication US9303069B2, “Peptides for treating cancer” (University of Mississippi Medical Center, priority 2014, dated 2016).

SMILES strings stand for the structures. pIC50: −log10 of the molar value. A value given as a limit tells only on which side of the number the result lay.

In assay [1] the test system is HME, HME/IRIS, MDA-MB-231, MDA-MB-468 and BT549 cells. As to the kind of experiment: Survival of breast cell lines with IRIS peptide, paclitaxel or both. In kind it is cell-based, human. The conditions noted are these: all cell lines, 24 hours. As to the method:
(§1) To investigate whether inactivating BRCA1-IRIS could sensitize TNBC to paclitaxel-induced cell death, HME cells were exposed to 0.5 μM, while HME/IRIS, MDA-MB-231, MDA-MB-468 and BT549 cells were exposed to 5 μM of IRIS peptide alone or with 5, 10 or 20 μM of paclitaxel for 24 hours. […] Again, IRIS peptide alone at these concentrations led to 50% reduction in survival of all cell lines. […] Indeed, in the presence of IRIS peptide >60%, >70% and >90% reduction in the survival of all cell lines in the presence of 5, 10 and 20 μM of paclitaxel, respectively (FIG. 84).
Cell viability measurement. Cell viability under different experimental conditions was determined using the MTS assay. Briefly, cells (2.5×10^4 cells per well) were seeded in 96-well plates and incubated overnight at 37° C. in 10% humidified CO2 atmosphere. The next day they were incubated with varying concentration of peptide, or inhibitors for 24 hours at 37° C. Cell viability was determined using cell Titer 96® Aqueous (Promega, Madison, Wis., USA) following manufacturer's instructions. Cell viability (%) was expressed as a ratio of treated cells to control cells×100. Growth inhibition was also determined by manually counting cells in five different microscopic fields. Change in cell numbers (fold) was expressed as a ratio of the means of these recording of treated cells compared to control cells×100. Each experiment was done in triplicate, repeated three separate times.

The subject of another assay is BRCA1-IRIS. Nature of the assay: BRCA1-IRIS expression in breast cells (Western). In kind it is cell-based, human. On the procedure:
HME and HME/IRIS cells were treated with 10, 20 and 50 μM of paclitaxel for 24 hours. Compared to HME/IRIS cells, untreated HME cells express very low level of BRCA1-IRIS (FIG. 68, left). […] Both EGF and NRG1, which were secreted at higher levels from untreated HME/IRIS cells, remained high after paclitaxel (until ˜50 μM, FIG. 68, left), whereas in HME cells, both were induced by low paclitaxel treatment (FIG. 68, left). Consistently, in HME/IRIS cells EGFR was phosphorylated on Y1173 (activated by EGF when EGFR is in complex with ErbB2) and ErbB2 on Y1248 (activated by NRG1 when ErbB2 is in complex with ErbB3) remained the same after paclitaxel treatment (until ˜50 μM, FIG. 68, left). Phosphorylated EGFR-Y1173 and ErbB2-Y1248 was only observed in paclitaxel treated HME cells, especially at low concentration (FIG. 68, left).
Survived/paclitaxel-resistant cells were then propagated in the absence of paclitaxel and analyzed. Again, the intrinsically high level of BRCA1-IRIS was not affected by paclitaxel in HME/IRIS cells (FIG. 69, left). […] The expressions of EGFR, ErbB2 and ErbB3 were high in HME/IRIS and HME cells (FIG. 69, left). Despite an intrinsic increase in HME/IRIS and paclitaxel-acquired increase in HME cells in AKT activation, FOXO inactivation/degradation and thus activation increase in CyclinD1, survivin, Bcl-2, Bcl-xL and NF-κB was observed (FIG. 69, right).
To test that hypothesis, an intron 11 peptide (right in FIG. 26) fused to a cell/nucleus penetrating signal at its N-terminus (left in FIG. 26) was synthesized (hereafter IRIS peptide). First, to assess the effect of this IRIS peptide, equal numbers of HME, HME/IRIS, MDA-MB-231, MDA-MB-468 and BT549 cells were exposed to increasing concentrations of scrambled or IRIS peptide for 48 hours. […] It is possible that preventing BRCA1-IRIS-X complex formation destabilizes BRCA1-IRIS and perhaps leads to its degradation.
as §1
To relate the effect of IRIS peptide on cell survival to the effect of BRCA1-IRIS on AKT and ERK survival pathways, MDA-MB-231 and MDA-MB-468 were treated with vehicle, 5 μM of IRIS peptide, 10 μM LY294002, 10 μM PD98059 for 24 hours or were transfected with BRCA1-IRIS siRNA for 72 hours.

The next assay concerns MDA-MB-468 tumors. As to the kind of experiment: In vivo efficacy on established MDA-MB-468 tumors. The conditions noted are these: 12 days; paclitaxel 10 mg/kg i.p., every third day, four injections. Details: species or system mice. As to the method:
Nude 6-8 weeks female mice were injected with 2×10^6 of MDA-MB-468 cells in the 2nd left and 4th right mammary fat pads. When all tumors reached ˜0.1 cm^3 in volume, mice were divided into four groups, one received vehicles (i.e. DMSO injected intraperitoneally [i.p.] and scrambled peptide injected directly into tumors [i.t.]), another received paclitaxel (10 mg/kg, i.p.), the third received IRIS peptide at (10 mg/kg, i.t.), and the last received paclitaxel and IRIS peptide at half the concentrations, injected as above. Drugs were delivered every third day for total of four injections.
In Vivo efficacy of BRCA1-IRIS-inhibitory peptide. Six to eight week old female athymic SCID mice were injected in the second right and the fourth left mammary gland with 2.5×10^6 of MDAMB468 cells. Tumor growth was followed daily until tumors reached 100 mm^3. At this time mice were randomly grouped into four different groups that were injected: a) with DMSO (i.p.) and scrambled peptide (10 mg/kg) intra-tumoral (i.t.), b) injected with IRIS peptide (10 mg/kg, i.t.), c) injected with paclitaxel (10 mg/kg, i.p.), d) injected with IRIS peptide (5 mg/kg, i.t.), and paclitaxel (5 mg/kg, i.p.). […] Change in tumor volume was measured to monitor the efficacy of the treatments using caliper and is represented as percentage of volume at day 0 of treatment. […]

A further assay deals with MDA-MB-231 cells. Nature of the assay: cells. The conditions noted are these: Homo sapiens, MDA-MB-231, read-out: IC50 of paclitaxel (viability).
A further assay deals with HME/IRIS cells. As to the kind of experiment: cells. Conditions: Homo sapiens, read-out: IC50 of paclitaxel (viability).
The next assay relates to BT549 cells. As to the kind of experiment: cells. Conditions: Homo sapiens, BT-549, read-out: IC50 of paclitaxel (viability).
Another assay deals with BRCA1-IRIS and survivin. Nature of the assay: IHC of MDA-MB-468 tumors for BRCA1-IRIS and survivin. Format: in vivo, mice. Conditions: MDA-MB-468 tumors after treatment. From the text: To study that on the molecular level, sections from these tumors were stained with H&E or for BRCA1-IRIS or survivin using immunohistochemistry. […] Accordingly, it is proposed that inactivating BRCA1-IRIS in TNBC patients might sensitize to lower paclitaxel concentrations to avoid the adverse side effects and also to prevent the recurrence of these tumors at a later point.
Immunohistochemistry (IHC). Breast tissue microarrays comprised of normal, DCIS, invasive and metastatic were purchased from US Biomax, Inc. Paraffin embedded tissue sections were de-waxed in xylene and rehydrated in alcohol. Antigen-retrieval: for FOXO3a and survivin was by heating the slides in citrate buffer (10 μM, pH 6.0) using microwave (Power level 4) for 10 minutes, for BRCA1-IRIS by incubating slides in pepsin (10 μM) for 20 min at 37° C. Endogenous peroxidase activity was suppressed by treating the slides with 3% H2O2 for 10 min. Slides were then incubated for 1 hour at room temperature with antibodies to human FOXO3a or survivin (Cell Signaling Technology, USA 1:400), or overnight at 4° C. with monoclonal anti-human BRCA1-IRIS (1:75). Vectastain Elite ABC Kit was used to develop the staining using horseradish peroxidase labeled secondary antibodies (1 hour at room temperature).

The next assay has as its system HME cells. As to the kind of experiment: cells. Conditions: Homo sapiens, read-out: IC50 of paclitaxel (viability).
The next assay relates to MDA-MB-468 cells. Nature of the assay: cells. Conditions: Homo sapiens, MDA-MB-468, read-out: IC50 of paclitaxel (viability).

Experimental for HME cells: (§2) All cell lines were exposed to increasing concentrations of paclitaxel and BRCA1-IRIS expression, and cells' viability was then measured.
(§3) Cell viability measurement. Cell viability under different experimental conditions was determined using the MTS assay. Briefly, cells (2.5×10^4 cells per well) were seeded in 96-well plates and incubated overnight at 37° C. in 10% humidified CO2 atmosphere. The next day they were incubated with varying concentration of peptide, or inhibitors for 24 hours at 37° C. Cell viability was determined using cell Titer 96® Aqueous (Promega, Madison, Wis., USA) following manufacturer's instructions. Cell viability (%) was expressed as a ratio of treated cells to control cells×100. […] Each experiment was done in triplicate, repeated three separate times.
Experimental for HME/IRIS cells: as §2, §3
Experimental for MDA-MB-231 cells: as §2
(§4) Stable clones were then exposed to 0, 10 or 20 μM of EGFR (Erlotinib), ErbB2 (CP-724714), PI3′K/AKT (LY294002), p38 (SB203580), ERK (PD98059) or JNK (SP600125) inhibitors for 24 hours.
Experimental for MDA-MB-468 cells: as §2, §4

The term pIC50 denotes the IC50 on a negative log10 scale, so that one unit is a factor of ten. Take `CC(=O)O[C@H]1C(=O)[C@@]2(C)[C@H]([C@H](OC(=O)c3ccccc3)[C@]3(O)C[C@H](OC(=O)[C@H](O)[C@@H](NC(=O)c4ccccc4)c4ccccc4)C(C)=C1C3(C)C)[C@]1(OC(C)=O)CO[C@@H]1C[C@@H]2O` [paclitaxel]: the reduction in survival in assay [1] (paclitaxel alone at 5 μM) is approximately 50%; in assay [1] (paclitaxel alone at 10 μM), approximately 60%; in assay [1] (paclitaxel alone at 20 μM), approximately 70%. The “BRCA1-IRIS expression in HME cells” value in the assay with BRCA1-IRIS (1 μM of paclitaxel for 1 or 3 weeks) is “acquired-induction in BRCA1-IRIS expression was detected”; in the assay with BRCA1-IRIS (10 and 20 μM paclitaxel, 24 hours) it was “significantly upregulated BRCA1-IRIS expression”. For the same compound, the “BRCA1-IRIS expression in HME/IRIS cells” value with BRCA1-IRIS (paclitaxel 24 hours, until ~50 μM) is given as “did not alter the expression of BRCA1-IRIS”. In addition, the “tumor size relative to control tumors” value with MDA-MB-468 tumors was “half the size of the control tumors”. Also, the pIC50 with MDA-MB-231 cells was less than 4.30; with HME/IRIS cells, approximately 4.30; with BT549 cells, approximately 4.46; in the assay with HME cells, approximately 5.30; with MDA-MB-468 cells, more than 4.70. Moreover, in the assay on BRCA1-IRIS and survivin, the “BRCA1-IRIS and survivin expression in tumors (IHC)” value is “significantly increase BRCA1-IRIS and survivin expression”.
